Assay results reported in article PMC12693182, “Synthesis and QSAR Studies of Claramine Derivatives, a New Class of Broad-Spectrum Antimicrobial Agents” (Molecules, 2025).
Converted amounts (≈) assume the structure as drawn. Like-named read-outs stand apart in the source and are kept apart here.

Legend:
E. coli ATCC 25922 = experiment: MIC, broth microdilution; type: cell-based, Escherichia coli; settings: Escherichia coli, ATCC25922, 24 h, ATCC strain
Description: (§1) Antimicrobial activity of the compounds was studied by determination of minimal inhibitory concentrations (MIC) according to the NCCLS guidelines M7-A2 using the microbroth dilution methods. The bacteria strains were grown on trypticase soy agar (Becton Dickinson) at 37 °C for 24 h. Inocula were prepared in TCE (tryptone 0.1%, […], wt/vol) by ajusting the turbidity at 623 nm to obtain 1–3 10^5 CFU/mL.
(§2) Antimicrobial activities of the compounds were determined by using a broth microdilution method performed in sterile 96-well microplates. All compounds were solubilized in water at a concentration of 10 mM and were transferred to each microplate well in order to obtain a two-fold serial dilution in 100 µL of broth and 100 µL of inoculum containing 2–6 10^5 CFU of each bacterium were added to each well. Some wells were reserved for positive controls and inoculum viability.

E. coli 1956 = experiment: MIC, broth microdilution; type: cell-based, Escherichia coli; settings: Escherichia coli, 1956, 24 h
Description: as §1, §2

S. intermedius 1051997 = experiment: MIC, broth microdilution; type: cell-based, Staphylococcus intermedius; settings: Staphylococcus intermedius, 1051997, 24 h, 24 h
Description: as §1, §2

[1] = system: Gram-positive and Gram-negative human and veterinary reference strains; experiment: MIC against the panel of Gram-positive and Gram-negative reference strains; type: cell-based; settings: for MIC: over several or all of the tested pathogens; for Therapeutic Ratio (TR): IC50 (CHO)/MIC, over several of the tested pathogens
Description: Typically, cytotoxicity was expressed as the half maximal inhibitory concentration (IC50), defined as the concentration of a compound that decreases cell viability by 50% relative to untreated cells. This parameter provides a quantitative measure of a compound’s toxic potential toward mammalian cells. To facilitate data interpretation, we defined the Therapeutic Ratio (TR) as the ratio of IC50 (µg/mL) to MIC (µg/mL). This dimensionless parameter provides a straightforward measure of antibacterial selectivity, allowing direct comparison of cytotoxicity and antibacterial potency. A high TR value indicates compounds with strong antibacterial activity at concentrations far below their cytotoxic threshold, whereas a TR close to unity reflects poor selectivity and limited therapeutic potential. […] Within the Claramine A series, variations in IC50 strongly impacted TR values (Figure 5).
as §1, §2

E. faecalis ATCC29212 = experiment: MIC, broth microdilution; type: cell-based, Enterococccus faecalis; settings: Enterococcus faecalis, ATCC29212, 24 h, ATCC strain, read-out: MIC E. faecalis 29212
Description: as §1, §2

P. aeruginosa 1051575 = experiment: MIC, broth microdilution; type: cell-based, Pseudomonas aeruginosa; settings: Pseudomonas aeruginosa, 1051575, 24 h, 24 h
Description: as §1, §2

P. aeruginosa ATCC 27853 = experiment: MIC, broth microdilution; type: cell-based, Pseudomonas aeruginosa; settings: Pseudomonas aeruginosa, ATCC27853, 24 h, ATCC strain
Description: as §1, §2

[2] = system: Chinese hamster Ovary cells (CHO-K1); experiment: Cytotoxicity assay (WST-1 / Neutral Red); type: cell-based; settings: 24-h incubation; for IC50: Cricetulus griseus, 24 h
Description: The cytotoxic activities of compounds were assessed on Chinese hamster Ovary cells (CHO-K1) provided from ATCC-LGC Standards Sarl (Molsheim, France). Cells were maintained in Mc Coy’s 5A (CHO) medium supplemented with 10% bovine calf serum, 2 mM glutamine, and 100 U mL^−1/10 µg mL^−1 penicillin/streptomycin mixtures. For the cytotoxicity experiments, they were seeded in 96-well plates and incubated at 37 °C in humidified atmosphere containing 5% CO2 overnight, then concentrations of compounds were incorporated in triplicate cultures. After a 24-h incubation period at 37 °C, cells were submitted to three successive washes in phosphate buffer saline (PBS) and cell viability was evaluated by two different vital dyes: • i. A first set of cell cultures was incubated in PBS containing 10% WST-1 for 30 min at 37 °C, 5% CO2. Cell viability was evaluated by the assessment of WST-1 absorbance at 450 nm in a microplate spectrophotometer. • ii. A second set of cell cultures was placed into Neutral Red medium (50 μg mL^−1 Neutral Red in complete medium) and incubated for 3 h at 37 °C, 5% CO2. Then the Neutral Red medium was removed and the distaining solution (50% ethanol, 1% acetic acid, 49% distilled water; 50 µL per well) was added into the wells. The plates were shaken for 15–20 min at room temperature in the dark. Cell viability was evaluated by the assessment of absorbance at 540 nm in a microplate spectrophotometer.
Results were expressed as percentages of cell viability about the control (culture medium-only), which corresponded to 100% cell viability. Dose-response curves were calculated by non-linear regression analysis with TableCurve 2D software (V 5.0.1) (Systat Software Inc., San Jose, CA, USA). The Inhibitory Concentration 50% (IC50) was defined as the concentration of compounds that induced a 50% decrease of viable cells.

S. aureus 340 = experiment: MIC, broth microdilution; type: cell-based, Staphylococcus aureus; settings: for MIC: Staphylococcus aureus, 340, 24 h
Description: as §1, §2

S. aureus ATCC 25923 = experiment: MIC, broth microdilution; type: cell-based, Staphylococcus aureus; settings: Staphylococcus aureus, ATCC25923, 24 h, ATCC strain
Description: as §1, §2

[3] = system: S. aureus 340 and P. aeruginosa 1051575; experiment: MIC against S. aureus and P. aeruginosa strains (Figure 6); type: cell-based; settings: range over both strains, C-24 methyl ester series
Description: as §1, §2

[4] = Homo sapiens, 24 h, read-out: MIC

Structure (SMILES) | MIC (E. coli ATCC 25922) | MIC (E. coli 1956) | MIC (S. intermedius 1051997) | MIC [1, 4] | Therapeutic Ratio (TR) [1] | MIC [1] | MIC (E. faecalis ATCC29212) | MIC (P. aeruginosa 1051575) | MIC (P. aeruginosa ATCC 27853) | IC50 CHO [2] | IC50 [2] | MIC S. aureus 340 (S. aureus 340; 24 h) | MIC (S. aureus 340) | MIC (S. aureus ATCC 25923) | MIC [3] | MIC ([1]; Homo sapiens, 24 h)
CC(C)OC(=O)CCC(C)C1CCC2C3CCC4CC(NCCCNCCCCNCCCN)CCC4(C)C3CC(O)C12C (stereo not shown) [Claramine A01, 3-Spermino Isopropyl Deoxycholate] | 4 µg/mL (≈ 6.46 µM) | 15 µg/mL (≈ 24.2 µM) | 8 µg/mL (≈ 12.9 µM) | < 15 µg/mL | > 5 | increased membrane permeabilization and concomitant disruption of proton homeostasis | 30 µg/mL (≈ 48.5 µM) | 15 µg/mL (≈ 24.2 µM) | 8 µg/mL (≈ 12.9 µM) | 43 µg/mL (≈ 69.5 µM) | > 35 µg/mL | 2 µg/mL (≈ 3.23 µM) | < 4 µg/mL | 2 µg/mL (≈ 3.23 µM) |  | 
CC(C)OC(=O)CCC(C)C1CCC2C3CCC4CC(NCCCNCCCNCCCN)CCC4(C)C3CC(O)C12C (stereo not shown) [Claramine A02] | 8 µg/mL (≈ 13.2 µM) | 15 µg/mL (≈ 24.8 µM) | 2 µg/mL (≈ 3.31 µM) | < 15 µg/mL | > 5 |  | 8 µg/mL (≈ 13.2 µM) | 8 µg/mL (≈ 13.2 µM) | 8 µg/mL (≈ 13.2 µM) |  | 51 µg/mL (≈ 84.3 µM) |  | 2 µg/mL (≈ 3.31 µM) | 4 µg/mL (≈ 6.61 µM) |  | 
CC(C)OC(=O)CCC(C)C1CCC2C3CCC4CC(NCCCNCCCCN)CCC4(C)C3CC(O)C12C (stereo not shown) [Claramine A03] | 14 µg/mL (≈ 24.9 µM) | 14 µg/mL (≈ 24.9 µM) | 4 µg/mL (≈ 7.12 µM) | < 15 µg/mL | > 5 |  | 14 µg/mL (≈ 24.9 µM) | 14 µg/mL (≈ 24.9 µM) | 14 µg/mL (≈ 24.9 µM) |  | 73 µg/mL (≈ 130 µM) |  | 2 µg/mL (≈ 3.56 µM) | 7 µg/mL (≈ 12.5 µM) |  | 
COC(=O)CCC(C)C1CCC2C3CCC4CC(NCCCNCCCNCCCN)CCC4(C)C3CC(O)C12C (stereo not shown) [Claramine A06] |  |  |  |  |  |  |  |  |  |  |  |  |  |  | 2 to 4 µg/mL (≈ 3.47 to 6.93 µM) | 
COC(=O)CCC(C)C1CCC2C3CCC4CC(NCCCNCCCN)CCC4(C)C3CC(O)C12C (stereo not shown) [Claramine A08] | 3 µg/mL (≈ 5.77 µM) | 13 µg/mL (≈ 25 µM) | 0.4 µg/mL (≈ 0.77 µM) | < 15 µg/mL | > 5 |  | 3 µg/mL (≈ 5.77 µM) | 3 µg/mL (≈ 5.77 µM) | 3 µg/mL (≈ 5.77 µM) |  | 21 µg/mL (≈ 40.4 µM) |  | 3 µg/mL (≈ 5.77 µM) | 2 µg/mL (≈ 3.85 µM) |  | 
COC(=O)CCC(C)C1CCC2C3CCC4CC(NCCNCCNCCNCCNCN)CCC4(C)C3CC(O)C12C (stereo not shown) [Claramine A15] | 8 µg/mL (≈ 13.2 µM) | 14 µg/mL (≈ 23.1 µM) | 1 µg/mL (≈ 1.65 µM) | < 15 µg/mL | > 5 |  | 16 µg/mL (≈ 26.4 µM) | 8 µg/mL (≈ 13.2 µM) | 8 µg/mL (≈ 13.2 µM) |  | 93 µg/mL (≈ 153 µM) |  | 6 µg/mL (≈ 9.89 µM) | 4 µg/mL (≈ 6.59 µM) |  | 
COC(=O)CCC(C)C1CCC2C3CCC4CC(NCCCN5CCN(CCCN)CC5)CCC4(C)C3CC(O)C12C (stereo not shown) [Claramine A18] | 7 µg/mL (≈ 11.9 µM) |  | 4 µg/mL (≈ 6.79 µM) | < 15 µg/mL | > 5 |  | 30 µg/mL (≈ 50.9 µM) | 15 µg/mL (≈ 25.5 µM) | 15 µg/mL (≈ 25.5 µM) |  | 135 µg/mL (≈ 229 µM) |  | 7 µg/mL (≈ 11.9 µM) | 15 µg/mL (≈ 25.5 µM) |  | 
COC(=O)CCC(C)C1CCC2C3C(O)CC4CC(NCCCCCCN)CCC4(C)C3CC(O)C12C (stereo not shown) [Claramine B06] | 7 µg/mL (≈ 13.4 µM) |  | 2 µg/mL (≈ 3.84 µM) |  |  |  | 7 µg/mL (≈ 13.4 µM) | 13 µg/mL (≈ 25 µM) | 13 µg/mL (≈ 25 µM) | 60 µg/mL (≈ 115 µM) | > 60 µg/mL |  | 3 µg/mL (≈ 5.76 µM) | 3 µg/mL (≈ 5.76 µM) |  | 0.7 to 30 µg/mL (≈ 1.34 to 57.6 µM)
